Reference: patent US6291496A, “Treating cancers associated with overexpression of class I family of receptor tyrosine kinases” (priority 1999, dated 2001)

How the values were obtained:
[1] = test system: HER-2/neu positive colon cancer; test: Example V: after resection of colon cancer; format: in vivo, human; details: patient, oral 5 mg/kg twice daily for five years after resection
HER-2/neu promoter = test: transient transfection assay, human HER-2/neu promoter construct ligated to luciferase, 184B5/HER cells; format: cell-based; details: 0-25 μM, 24 hours, FIG. 1
Experimental: To determine whether PPARγ ligands inhibit HER-2/neu promoter activity, a transient transfection assay was performed. 184B5/HER cells were transfected with 1.8 μg of a human HER-21neu promoter construct ligated to luciferase (-1571/--24) and 0.2 μg pSVβgal (Promega Corp., Madison Wis.). The HER-2/neu promoter (-1571/--24) is described in Hudson, L. G. et al, J. Biol. Chem. 265, 4389-4393 (3/90), the whole of which is incorporated herein by reference. The promoter constructs are described in Hudson, L. G., et al, Cell 62, 1165-1175(1990). 184B5/HER cells were seeded at a density of5×10^4 cells well in 6-well dishes and grown to 50-60% confluence. For each well, 2 μg of […] DNA were introduced into cells using 8 μg of LIPOFECTAMINE (Life Technologies, Inc., Grand Island, N.Y.) as per the manufacturer's instructions. Following transfection, the cells were treated with ciglitazone (0, 5, 10, 15, 20 and 25 μM) or 15d-PGJ2 (0, 5, 10, 15, 20 and 25 μM) for 24 hours.
The activities of luciferase and β-galactosidase were measured in cellular extract as described in Mestre, J. R. et al, Cancer Res. 57, 1081-1085 (1997).

HER-2/neu in BT474 cells = test: immunoblot for HER-2/neu in BT474 cells; format: cell-based, human; details: 25 μM ciglitazone
Description: The 184B5/HER cell line was obtained from a collaborator and was derived by stably transfecting 184B5 cells with a mutationally activated HER-2/neu oncogene; these cells form rapidly growing tumors when injected into athymic nude mice. The 184B5/HER cell line is described in Pierce, J. H., et al., Oncogene 6, 1189-1194 (1991). The BT-474 cell line is a human breast cancer adenocarcinoma cell line which overexpresses HER-2/neu, and was obtained from the American Type Culture Collection (Manassas, Va.) and bears accession number ATCC HBT-20.
184B5/HER cells were maintained in MEM-KBM mixed in a ratio of 1:1 (basal medium) containing epidermal growth factor (10 ng/ml), hydrocortisone (0.5 μg/ml), transferrin (10 μg/ml), gentamicin (5 μg/ml) and insulin (10 μg/ml) (growth medium). […] cells were grown to 60% confluence, trypsinized with 0.05% trypsin-2 mM ethylenediaminotetraacetic acid, and plated for experimental use. […]
184B5/HER cells were treated with vehicle (0.01% dimethylsulfoxide), 25 μM ciglitazone (Biomol, Plymouth Meeting, Pennsylvania) or 20 μM 15-d-PGJ2 (Biomol, Plymouth Meeting, Pennsylvania) for 24 hours. […] The protein concentration of the supernatant was measured by the method of Lowry, O. H., et al, J. Biol. Chem. 193, 265-275 (1951). […]

HER-2/neu transcription = test: nuclear run-off assay of HER-2/neu transcription in 184B5/HER cells; format: cell-based, human; details: ciglitazone 5, 10 or 25 μM, 24 hours
Experimental: To determine whether PPARγ ligands inhibit the transcription of HER-2/neu, a nuclear run-off assay was carried out. 184B5/HER cells were treated with vehicle (0.01% dimethyl sulfoxide) or ciglitazone (5,10 or 25 μM) for 24 hours. 2.5×10^5 cells were plated in four T150 dishes for each condition. Cells were grown in growth medium until 60% confluent. Nuclei were isolated and stored in liquid nitrogen. The HER-2/neu and 18S rRNA cDNAs were immobilized on a nitrocellulose membrane (Schleicher & Schuell, Keene, N.H.) and prehybridized overnight in hybridization buffer.

[2] = test system: non-small cell lung carcinoma where EGFR is overexpressed; test: Example VI: non-small cell lung carcinoma metastasized to liver; format: in vivo, human; details: patient, oral 5 mg/kg twice daily
Experimental: After one month, PPARγ ligand administration is continued in combination with infusion of cisplatin every four weeks at 60 mg/m^2 for 12 more weeks.

[3] = test system: EGFR in 184B5 mammary epithelial cells; test: immunoblot for EGFR in 184B5 cells; format: cell-based, human; details: ciglitazone 5-30 μM or 15-d-PGJ2 5, 10 μM, 24 hours
Experimental: The cells used were 184B5 cells. The 184B5 cell line was obtained from a collaborator and is an immortalized but non-tumorigenic human breast epithelial cell line that was established from a reduction mammaplasty and is described in Stampler, M. R, et al, Proc. Natl. Acad. Sci. USA 82, 2394-2398 (1985).
184B5 cells were maintained in MEM-KBM mixed in a ratio of 1:1 (basal medium) containing epidermal growth factor (10 ng/ml), hydrocortisone (0.5 μg/ml), transferrin (10 μg/ml), gentamicin (5 μg/ml), and insulin (10 μg/ml) (growth medium). 184B5 cells were grown to 60% confluence, trypsinized with 0.05% trypsin-2 mM ethylenediaminotetraacetic acid and plated for experimental use.
184B5 cells were treated with vehicle (0.01% dimethyl sulfoxide), ciglitazone (5, 10, 20, 30 μM) or 15-d-PGJ2 (5, 10 μM) for 24 hours. Cell lysates were prepared in RIPA buffer. Lysates were sonicated for 20 seconds on ice and centrifuged at 10,000×g for 10 minutes to sediment the particulate material. The protein concentration of the supernatant was measured by the method of Lowry,. O. H., et al, J. Biol. Chem. 193, 265-275 (1951). Cellular lysate protein (100 μg/lane) was loaded onto a 10% SDS-polyacrylamide gel, electrophoresed and subsequently transferred onto a nitrocellulose membrane(Schleicher & Schuell Keene, N. H.). […]

[4] = biological target: human PPARγ binding domain; details: scintillation proximity assay, radioligand [3H]BRL 49653; values reported in Henke et al, Collins et al, Cobb et al; cited from earlier work

**Q.** Which results are given for `CC1(COc2ccc(CC3SC(=O)NC3=O)cc2)CCCCC1` (stereo not shown) [ciglitazone]?
**A.** recurrence of colon cancer [1]: Recurrence of colon cancer does not occur; HER-2/neu promoter activity (luciferase normalized to β-galactosidase) (HER-2/neu promoter): inhibited HER-2 neu promoter activity in a dose-dependent fashion; amounts of HER-2/neu (immunoblot) (HER-2/neu in BT474 cells): decreased amounts of HER-2/neu; HER-2/neu transcription (nuclear run-off) (HER-2/neu transcription): dose-dependent suppression of HER-2/neu transcription; tumor burden [2]: reduced tumor burden; amounts of EGFR (immunoblot) [3]: decreased amounts of EGFR; pKi in binding assay using the human PPARγ binding domain [4]: 5.51±0.09
